Here are results for one compound from patent US20160231319A1, “METHOD OF ENHANCING HEMATOPOIETIC CELL TRANSPLANTATION” (Verve, Ltd., priority 2014, published 2016).

For test [1], the system named is phospho-GSK-3β in CD34+ cells from UCB. Briefly: UCB mononuclear cells treated with PGE2; phospho-GSK-3β expression in CD34+ cells by high-resolution flow cytometry. Format: cell-based. The following applies: UCB treated with reagent vehicle (DMSO) versus PGE2. The text has this: Using our high-resolution flow cytometric technology, we have studied HSC for measures of potency. Our conception has been that expression levels of molecules shown to be important for hematopoiesis in experimental studies may have utility in assessing the potency of HSC in terms of engraftment after transplantation.
In order to assess molecular expression level correlates of potency in UCB HSC, we treated UCB mononuclear cells with PGE2 and assessed the expression of […].
This is consistent with our previous finding that phospho-GSK-3β is a potency biomarker.
For orientation: Flow cytometry measures light scatter and fluorescence of single cells or particles in a stream.

For test [2], the system named is UCB HSC. The following applies: pulse incubation of UCB cells; clinical trial; cited from earlier work.

For `CCCCC[C@H](O)/C=C/[C@H]1[C@H](O)CC(=O)[C@@H]1C/C=C\CCCC(=O)O` [PGE2, Prostaglandin E2], the “expression of phospho-GSK-3β in CD34+ cells” value in test [1] is reported as “able to detect differences in expression of phospho-GSK-3β”. Besides, in test [2], the “potency of the HSC in terms of engraftment” value was “enhances the potency of the HSC in terms of engraftment”.
